In patent publication US7446102B2, “Antibacterial amide macrocycles IV” (priority 2004, dated 2008):
In brackets after ≈: the same amount, converted by molar mass. Counter-ions that a name gives are not always drawn. Like-named read-outs stand apart in the source and are kept apart here.

Columns and labels:
S. aureus 133 [1] = assay: Systemic infection with S. aureus 133 (mouse sepsis model); assay type: in vivo; conditions: female CFW1 mice, i.p. infection, i.v. therapy 30 minutes after the infection, survival over 6 days
[2] = target: S. aureus 133 translation; assay: S. aureus in vitro transcription-translation assay (firefly luciferase, S30 extract); assay type: biochemical; conditions: 50% inhibition of the translation of firefly luciferase
Description: In Vitro Transcription-Translation with S. aureus Extracts
Construction of an S. aureus Luciferase Reporter Plasmid
For the construction of a reporter plasmid which can be used in an in vitro transcription-translation assay from S. aureus the plasmid pBESTluc (Promega Corporation, USA) is used. The E. coli tac promoter present in this plasmid in front of the firefly luciferase is replaced by the capA1 promoter with appropriate Shine-Dalgarno sequence from S. aureus. The primers CAPFor 5′-[…] […] […]-3′ and CAPRev 5′-[…]-3′ are used for this. The primer CAPFor contains the capA1 promoter, the ribosome binding site and the 5′ region of the luciferase gene. After PCR using pBESTluc as template it is possible to isolate a PCR product which contains the firefly luciferase gene with the fused capA1 promoter. This is, after restriction with ClaI and HindIII, ligated into the vector pBESTluc which has likewise been digested with ClaI and HindIII. The resulting plasmid p1a is able to replicate in E. coli and be used as template in the S. aureus in vitro transcription-translation assay.
Preparation of S30 Extracts from S. aureus
Six liters of BHI medium are inoculated with a 250 ml overnight culture of an S. aureus strain and allowed to grow at 37° C. until the OD600 nm is 2-4. The cells are harvested by centrifugation and washed in 500 ml of cold buffer A (10 mM Tris acetate, pH 8.0, 14 mM magnesium acetate, 1 mM DTT, 1 M KCl). After renewed centrifugation, the cells are washed in 250 ml of cold buffer A with 50 mM KCl, and the resulting pellets are frozen at −20° C. for 60 min. The pellets are thawed on ice in 30 to 60 min and taken up in buffer B (10 mM Tris acetate, pH 8.0, 20 mM magnesium acetate, 1 mM DTT, 50 mM KCl) up to a total volume of 99 ml. 1.5 ml portions of lysostaphin (0.8 mg/ml) in buffer B are introduced into 3 precooled centrifuge cups and each is mixed with 33 ml of the cell suspension. The samples are incubated at 37° C., shaking occasionally, for 45 to 60 min, before 150 μl of a 0.5 M DTT solution are added. The lysed cells are centrifuged at 30 000×g and 4° C. for 30 min. The cell pellet is taken up in buffer B and then centrifuged again under the same conditions, and the collected supernatants are combined. The supernatants are centrifuged again under the same conditions, and 0.25 volumes of buffer C (670 mM Tris acetate, pH 8.0, 20 mM magnesium acetate, 7 mM Na3 phosphoenolpyruvate, 7 mM DTT, 5.5 mM ATP, 70 μM amino acids (complete from Promega), 75 μg of pyruvate kinase (Sigma, Germany))/ml are added to the upper ⅔ of the supernatant. The samples are incubated at 37° C. for 30 min. The supernatants are dialysed against 21 of dialysis buffer (10 mM Tris acetate, pH 8.0, 14 mM magnesium acetate, 1 mM DTT, 60 mM potassium acetate) in a dialysis tube with a 3500 Da cut-off with one buffer change at 4° C. overnight. The dialysate is concentrated to a protein concentration of about 10 mg/ml by covering the dialysis tube with cold PEG 8000 powder (Sigma, Germany) at 4° C. The S30 extracts can be stored in aliquots at −70° C.
Determination of the IC50 in the S. aureus In Vitro Transcription-Translation Assay
Inhibition of protein biosynthesis of the compounds can be shown in an in vitro transcription-translation assay. The assay is based on the cell-free transcription and translation of firefly luciferase using the reporter plasmid p1a as template and cell-free S30 extracts obtained from S. aureus. The activity of the resulting luciferase can be detected by luminescence measurement.
The amount of S30 extract or plasmid p1a respectively to be employed must be tested anew for each preparation in order to ensure an optimal concentration in the assay. 3 μl of the substance to be tested, dissolved in 5% DMSO, are introduced into an MTP. Then 10 μl of a suitably concentrated plasmid solution p1a are added. […]

S. aureus 133 [3] = assay: Determination of the minimum inhibitory concentration (MIC), S. aureus 133; assay type: cell-based
Description: (§1) Determination of the Minimum Inhibitory Concentration (MIC)
(§2) The minimum inhibitory concentration (MIC) is the minimum concentration of an antibiotic with which the growth of a test microbe is inhibited over 18-24 h. The inhibitor concentration can in these cases be determined by standard microbiological methods (see, for example, The National Committee for Clinical Laboratory Standards. Methods for dilution antimicrobial susceptibility tests for bacteria that grow aerobically; approved standard-fifth edition. NCCLS document M7-A5 [ISBN 1-56238-394-9]. NCCLS, 940 West Valley Road, Suite 1400, Wayne, Pa. 19087-1898 USA, 2000). The MIC of the compounds of the invention is determined in the liquid dilution test on the 96-well microtitre plate scale. The bacterial microbes are cultivated in a minimal medium (18.5 mM Na2HPO4, 5.7 mM KH2PO4, 9.3 mM NH4Cl, 2.8 mM MgSO4, 17.1 mM NaCl, 0.033 μg/ml thiamine hydrochloride, 1.2 μg/ml nicotinic acid, 0.003 μg/ml biotin, 1% glucose, 25 μg/ml of each proteinogenic amino acid with the exception of phenylalanine; [H.-P. Kroll; unpublished]) with the addition of 0.4% BH broth (test medium). In the case of Enterococcus facium L4001, heat-inactivated fetal calf serum (FCS; GibcoBRL, Germany) is added to the test medium in a final concentration of 10%. Overnight cultures of the test microbes are diluted to an OD578 of 0.001 (to 0.01 in the case of enterococci) in fresh test medium, and incubated 1:1 with dilutions of the test substances (1:2 dilution steps) in test medium (200 μl final volume). The cultures are incubated at 37° C. for 18-24 hours; enterococci in the presence of 5% CO2.
(§3) The lowest substance concentration in each case at which no visible bacterial growth occurred any more is defined as the MIC.
(§4) Alternative Method for Determining the Minimum Inhibitory Concentration (MIC)
(§5) The minimum inhibitory concentration (MIC) is the minimum concentration of an antibiotic with which the growth of a test microbe is inhibited over 18-24 h. The inhibitor concentration can in these cases be determined by standard microbiological methods with modified medium in an agar dilution test (see, for example, The National Committee for Clinical Laboratory Standards. Methods for dilution antimicrobial susceptibility tests for bacteria that grow aerobically; approved standard-fifth edition. NCCLS document M7-A5 [ISBN 1-56238-394-9]. NCCLS, 940 West Valley Road, Suite 1400, Wayne, Pa. 19087-1898 USA, 2000). The bacterial microbes are cultivated on 1.5% agar plates which contain 20% defibrinated horse blood. The test microbes, which are incubated overnight on Columbia blood agar plates (Becton-Dickinson), are diluted in PBS, adjusted to a microbe count of about […] and placed dropwise (1-3 μl) on test plates. The test substances comprise different dilutions of the test substances (1:2 dilution steps). The cultures are incubated at 37° C. in the presence of 5% CO2 for 18-24 hours.
(§6) The lowest substance concentration in each case at which no visible bacterial growth occurred any more is defined as the MIC and is reported in μg/ml.

E. faecium L4001 = assay: Determination of the minimum inhibitory concentration (MIC), E. faecium L4001; assay type: cell-based; conditions: Enterococcus faecium
Description: as §1, §2, §3, §4, §5, §6

S. aureus T17 = assay: Determination of the minimum inhibitory concentration (MIC), biphenomycin-resistant S. aureus T17; assay type: cell-based; conditions: Staphylococcus aureus, biphenomycin-resistant strain, no visible bacterial growth, 18-24 h, 37° C., read-out: MIC S. aureus T17
Description: as §1, §2, §3, §4, §5, §6
The S. aureus strain T17 is isolated in vivo. CFW1 mice are infected intraperitoneally with 4×10^7 S. aureus 133 cells per mouse. 0.5 h after the infection, the animals are treated intravenously with 50 mg/kg biphenomycin B. The kidneys are removed from the surviving animals on day 3 after the infection. After homogenization of the organs, the homogenates are plated out as described for RN4220Bi^R on antibiotics-free and antibiotics-containing agar plates and incubated at 37° C. overnight. […] About 20 of these colonies are tested for the biphenomycin B MIC, and a colony with an MIC of >50 μM is selected for further cultivation, and the strain is referred to as T17.

[4] = Staphylococcus aureus, 133, read-out: MIC S. aureus 133
[5] = L4001, read-out: MIC E. faecium L4001
[6] = Staphylococcus aureus, 133, no visible bacterial growth, 18-24 h, 37° C., read-out: MIC S. aureus 133
[7] = L4001, no visible bacterial growth, 18-24 h, 37° C., 5% CO2, read-out: MIC E. faecium L4001

Row | Compound | therapeutic effect ED100 (S. aureus 133 [1]) [mg/kg] | IC50 [2] [nM] | MIC (S. aureus 133 [3]; [4]) [µg/mL] | MIC (E. faecium L4001; [5]) [µg/mL] | MIC (S. aureus T17) [µg/mL] | MIC (S. aureus 133 [3]; [6]) [µg/mL] | MIC (E. faecium L4001; [7]) [µg/mL]
1 | NCCC[C@H](NC(=O)[C@@H]1Cc2cc(ccc2O)-c2ccc(O)c(c2)C[C@H](N)C(=O)N[C@@H](CCCN)C(=O)N1)C(=O)NCCN [Example 2, (8S,11S,14S)-14-Amino-N-((1S)-4-amino-1-{[(2-aminoethyl)amino]carbonyl}butyl)-11-(3-aminopropyl)-5,17-dihydroxy-10,13-dioxo-9,12-diazatricyclo[14.3.1.1^2,6]henicosa-1(20),2(21),3,5,16,18-hexaene-8-carboxamide tetra(hydrotrifluoroacetate)] | 1.25 | – | – | – | – | – | –
2 | NCCC[C@@H]1NC(=O)[C@@H](N)Cc2cc(ccc2O)-c2ccc(O)c(c2)C[C@@H](C(=O)N[C@@H](C[C@@H](O)CN)C(=O)NCCN)NC1=O [Example 6, (8S,11S,14S)-14-Amino-N-((1S,3R)-4-amino-1-{[(2-aminoethyl)amino]carbonyl}-3-hydroxybutyl)-11-[3-aminopropyl]-5,17-dihydroxy-10,13-dioxo-9,12-diazatricyclo[14.3.1.1^2,6]henicosa-1(20),2(21),3,5,16,18-hexaene-8-carboxamide tetrahydrochloride] | – | 100 | 1 | 8 | 2 | – | –
3 | NCCC[C@H](NC(=O)[C@@H]1Cc2cc(ccc2O)-c2ccc(O)c(c2)C[C@H](N)C(=O)N[C@@H](CCCN)C(=O)N1)C(=O)NCCC[C@H](N)CC(=O)NCCN [Example 10, (8S,11S,14S)-14-Amino-N-{(1S)-4-amino-1-[({(4R)-4-amino-6-[(2-aminoethyl)amino]-6-oxohexyl}amino)carbonyl]butyl}-1-(3-aminopropyl)-5,17-dihydroxy-10,13-dioxo-9,12-diazatricyclo[14.3.1.1^2,6]henicosa-1(20),2(21),3,5,16,18-hexaene-8-carboxamide pentahydrochloride] | – | 70 | – | – | 0.5 | 0.5 | 8
4 | NCCC[C@H](NC(=O)[C@@H]1Cc2cc(ccc2O)-c2ccc(O)c(c2)C[C@H](N)C(=O)N[C@@H](CCCN)C(=O)N1)C(=O)N[C@@H](CCN)C(=O)NCCN [Example 13, (8S,11S,14S)-14-Amino-N-((1S)-4-amino-1-{[((1S)-3-amino-1-{[(2-aminoethyl)amino]carbonyl}propyl)amino]carbonyl}butyl)-11-(3-aminopropyl)-5,17-dihydroxy-10,13-dioxo-9,12-diazatricyclo[14.3.1.1^2,6]henicosa-1(20),2(21),3,5,16,18-hexaene-8-carboxamide pentahydrochloride] | – | 60 | 0.5 | 16 | 0.5 | – | –
5 | N=C(N)NCCC[C@H](NC(=O)[C@@H]1Cc2cc(ccc2O)-c2ccc(O)c(c2)C[C@H](N)C(=O)N[C@@H](CCCN)C(=O)N1)C(=O)NCCN [Example 14, (8S,11S,14S)-14-Amino-N-((1S)-1-{[(2-aminoethyl)amino]carbonyl}-4-{[amino(imino)methyl]amino}butyl)-11-(3-aminopropyl)-5,17-dihydroxy-10,13-dioxo-9,12-diazatricyclo[14.3.1.1^2,6]henicosa-1(20),2(21),3,5,16,18-hexaene-8-carboxamide pentahydrochloride] | – | 70 | 1 | 4 | 2 | – | –
6 | NCCC[C@H](N)CNC(=O)[C@H](CCCN)NC(=O)[C@@H]1Cc2cc(ccc2O)-c2ccc(O)c(c2)C[C@H](N)C(=O)N[C@@H](CCCN)C(=O)N1 [Example 16, (8S,11S,14S)-14-Amino-N-[(1S)-4-amino-1-({[(2S)-2,5-diaminopentyl]amino}carbonyl)butyl]-11-(3-aminopropyl)-5,17-dihydroxy-10,13-dioxo-9,12-diazatricyclo[14.3.1.1^2,6]henicosa-1(20),2(21),3,5,16,18-hexaene-8-carboxamide tetrahydrochloride] | – | 100 | 2 | > 32 | 2 | – | –
7 | NCCC[C@@H]1NC(=O)[C@@H](N)Cc2cc(ccc2O)-c2ccc(O)c(c2)C[C@@H](C(=O)N[C@H](CO)CNC(=O)[C@@H](N)CCCN)NC1=O [Example 23] | – | 320 | – | – | 1 (≈ 1.56 µM) | 0.5 (≈ 0.778 µM) | 4 (≈ 6.22 µM)
